Test results from US20080167461A1, “Process for Preparing 3,6-Dichloropyridazine-1-Oxide” (SANKYO AGRO COMPANY, LIMITED, priority 2005, published 2008).

Columns and labels:
Cyperus serotinus = test: Treatment prior to germination of rice paddy weeds (flooding soil treatment, pot test); type: in vivo; conditions: dose 10 g/a; wettable powder diluted with water, treated 3 days after transplant under flooding; evaluated 25 days after treatment
From the text: (§1) Rice paddy soil was filled into a 1/10,000a pot, followed by mixing seeds of dormancy awakening Echinochloa oryzicola and Scirpus joncoides, and annual broadleaf weeds (Lindernia spp. and Rotala indica) in 1 cm of the surface layer of soil. In addition, Cyperus serotinus tubers subjected to accelerated germination were planted, followed by transplanting rice seedlings at the 2.2 leaf stage and growing under flooding conditions in a greenhouse. Three days after transplant, a predetermined dose of the wettable powder prepared according to Reference Example 2 was diluted with water, the soil was treated with a spraying solution thereof under flooding conditions and herbicidal effects and chemical damage to the transplanted rice plants were measured according to the evaluation criteria shown below 25 days after treatment.
(§2) 0: Growth inhibition rate 0 to 10%
(§3) 1: Growth inhibition rate 11 to 30%
(§4) 2: Growth inhibition rate 31 to 50%
(§5) 3: Growth inhibition rate 51 to 70%
(§6) 4: Growth inhibition rate 71 to 90%
(§7) 5: Growth inhibition rate 91 to 100%

Echinochloa oryzicola = test: as above; type: in vivo; conditions: dose 10 g/a; wettable powder diluted with water, treated 3 days after transplant under flooding; evaluated 25 days after treatment
From the text: as §1, §2, §3, §4, §5, §6, §7

Scirpus joncoides = test: as above; type: in vivo; conditions: dose 10 g/a; wettable powder diluted with water, treated 3 days after transplant under flooding; evaluated 25 days after treatment
From the text: as §1, §2, §3, §4, §5, §6, §7

[1] = system: annual broadleaf weeds (Lindernia spp. and Rotala indica); test: as above; type: in vivo; conditions: dose 10 g/a; wettable powder diluted with water, treated 3 days after transplant under flooding; evaluated 25 days after treatment
From the text: as §1, §2, §3, §4, §5, §6, §7

rice plants = test: Chemical damage to transplanted rice plants (flooding soil treatment, pot test); type: in vivo
From the text: as §1, §2, §3, §4, §5, §6, §7

[2] = system: dominant weeds of rice paddies; test: Herbicidal activity in rice paddies, flooding soil treatment before or after weed germination (general statement); type: in vivo
From the text: The compound synthesized in Reference Example 1 has herbicidal action, and can be used as a herbicide.

For Cc1cccc(C)c1Oc1nnc(Cl)cc1O [Reference Example 1, 6-Chloro-3-(2,6-dimethylphenoxy)-4-pyridazinol], the “herbicidal activity (growth inhibition grade) against Cyperus serotinus” value (Cyperus serotinus) was 5 (Growth inhibition rate 91 to 100%), the “herbicidal activity (growth inhibition grade) against Echinochloa oryzicola” value (Echinochloa oryzicola) was 2 (Growth inhibition rate 31 to 50%) and the “herbicidal activity (growth inhibition grade) against Scirpus joncoides” value (Scirpus joncoides) was 5 (Growth inhibition rate 91 to 100%). For the same compound, the “herbicidal activity (growth inhibition grade) against broadleaf weeds” value [1] was 5 (Growth inhibition rate 91 to 100%), the “chemical toxicity with respect to rice” value (rice plants; flooding soil treatment before or after weed germination, general statement) was “without demonstrating problems in terms of chemical toxicity” and the “activity against rice plants (chemical damage grade)” value (rice plants; transplanted rice seedlings (2.2 leaf stage), dose 10 g/a, evaluated 25 days after treatment) was 0 (Growth inhibition rate 0 to 10%). The “herbicidal activity against dominant weeds of rice paddies” value [2] was “demonstrates herbicidal activity” and the melting point was 214 to 215 °C.
